Data taken from PubChem BioAssay AID256 (DTP/NCI, 2004).
“And” between values parts separate entries of the source, which are not always exact repeats. Equal values may be shown once. Inconclusive results and toxic doses are left out. Rule for the calls: active = survival T/C of 150% or more; inactive = T/C below 125% in these data. Non-standard residues stand in square brackets, D forms with d. Residues, ends and D or L forms follow the SMILES beside them. Deg = CCC(N)(CC)C(=O)O

Tested on: CD2F1 mice, L1210 leukemia ip, survival T/C
Assay: NCI In Vivo Anticancer Drug Screen. Data for tumor model L1210 Leukemia (intraperitoneal) in CD2F1 (CDF1) mice
Conditions: higher = longer survival
Summary of the method: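 Implant tumor; dose compound or vehicle; measure endpoint in both groups; report treated divided by control.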

[1] = endpoint: mean survival time, dose: 100.0 mg/kg/injection, schedule: Q01DX009 (ip), vehicle: saline with Tween-80
[2] = endpoint: mean survival time, dose: 200.0 mg/kg/injection, schedule: Q01DX009 (ip), vehicle: saline with Tween-80
[3] = endpoint: mean survival time, dose: 50.0 mg/kg/injection, schedule: Q01DX009 (ip), vehicle: Klucel (hydroxypropylcellulose) (HPC)
[4] = endpoint: mean survival time, dose: 100.0 mg/kg/injection, schedule: Q01DX009 (ip), vehicle: Klucel (hydroxypropylcellulose) (HPC)
[5] = endpoint: mean survival time, dose: 200.0 mg/kg/injection, schedule: Q01DX009 (ip), vehicle: Klucel (hydroxypropylcellulose) (HPC)
[6] = endpoint: mean survival time, dose: 50.0 mg/kg/injection, schedule: Q01DX009 (ip), vehicle: saline with Tween-80
[7] = endpoint: mean survival time, dose: 20.0 mg/kg/injection, schedule: Q01DX009 (ip), vehicle: saline with Tween-80

Measured: T/C

CCCC1CCC(=C2C(=O)CCC2=O)O1 (stereo not drawn)
inactive: endpoint: median survival time, dose: 25.0 mg/kg/injection, schedule: Q01DX009 (ip), vehicle: saline with Tween-80 98 % of control | endpoint: median survival time, dose: 50.0 mg/kg/injection, schedule: Q01DX009 (ip), vehicle: saline with Tween-80 100 % of control | endpoint: median survival time, dose: 100.0 mg/kg/injection, schedule: Q01DX009 (ip), vehicle: saline with Tween-80 100 % of control | endpoint: median survival time, dose: 200.0 mg/kg/injection, schedule: Q01DX009 (ip), vehicle: saline with Tween-80 102 % of control

C#CC(C)(O)CCCCCC (stereo not drawn)
inactive: [1] 113 % of control | [2] 100 % of control

CCC(CC)(NC(=O)CN)C(=O)O (H-Gly-[Deg]-OH)
inactive: endpoint: mean survival time, dose: 100.0 mg/kg/injection, schedule: Q04DX002 (ip), vehicle: saline with Tween-80 96 % of control | endpoint: mean survival time, dose: 200.0 mg/kg/injection, schedule: Q04DX002 (ip), vehicle: saline with Tween-80 104 % of control | endpoint: mean survival time, dose: 400.0 mg/kg/injection, schedule: Q04DX002 (ip), vehicle: saline with Tween-80 96 % of control

OCC(F)(F)C(F)(F)C(F)(F)F
inactive: endpoint: mean survival time, dose: 75.0 mg/kg/injection, schedule: Q01DX009 (ip), vehicle: saline 95 % of control | endpoint: mean survival time, dose: 150.0 mg/kg/injection, schedule: Q01DX009 (ip), vehicle: saline 95 % of control | endpoint: mean survival time, dose: 300.0 mg/kg/injection, schedule: Q01DX009 (ip), vehicle: saline 103 % of control | endpoint: mean survival time, dose: 600.0 mg/kg/injection, schedule: Q01DX009 (ip), vehicle: saline 86 % of control

O=C(O)CC(O)(CC(=O)O)C(=O)O
inactive: endpoint: mean survival time, dose: 60.0 mg/kg/injection, schedule: Q01DX001 (ip), vehicle: saline 106 % of control | endpoint: mean survival time, dose: 200.0 mg/kg/injection, schedule: Q01DX001 (ip), vehicle: saline 96 % of control | endpoint: mean survival time, dose: 400.0 mg/kg/injection, schedule: Q01DX001 (ip), vehicle: saline 94 % of control | endpoint: mean survival time, dose: 800.0 mg/kg/injection, schedule: Q01DX001 (ip), vehicle: saline 100 % of control

CC(=O)OC1(C)CC(C)(C)N=[N+]1[O-] (stereo not drawn)
inactive: endpoint: mean survival time, dose: 25.0 mg/kg/injection, schedule: Q01DX009 (ip), vehicle: Klucel (hydroxypropylcellulose) (HPC) 96 % of control | [3] 101 % of control | [4] 101 % of control | [5] 105 % of control

CC(=O)c1ccc2c3c(cccc13)CC2
inactive: endpoint: mean survival time, dose: 100.0 mg/kg/injection, schedule: Q01DX001 (ip), vehicle: saline with Tween-80 94 % of control | endpoint: mean survival time, dose: 200.0 mg/kg/injection, schedule: Q01DX001 (ip), vehicle: saline with Tween-80 96 % of control | endpoint: mean survival time, dose: 400.0 mg/kg/injection, schedule: Q01DX001 (ip), vehicle: saline with Tween-80 110 % of control

COc1cc2c(c(OC)c1O)-c1ccc(OC)c(=O)cc1[C@@H](NC(=O)C(F)(F)F)CC2
active: endpoint: median survival time, dose: 2.5 mg/kg/injection, schedule: Q01DX005 (ip), vehicle: Klucel (hydroxypropylcellulose) (HPC) 164 % of control | endpoint: median survival time, dose: 3.0 mg/kg/injection, schedule: Q01DX005 (ip), vehicle: Klucel (hydroxypropylcellulose) (HPC) 175 % of control | endpoint: median survival time, dose: 5.0 mg/kg/injection, schedule: Q01DX005 (ip), vehicle: Klucel (hydroxypropylcellulose) (HPC) 171 % of control | endpoint: median survival time, dose: 8.32 mg/kg/injection, schedule: Q01DX005 (ip), vehicle: Klucel (hydroxypropylcellulose) (HPC) 167 % of control | endpoint: median survival time, dose: 10.0 mg/kg/injection, schedule: Q01DX005 (ip), vehicle: Klucel (hydroxypropylcellulose) (HPC) 160 % of control | endpoint: median survival time, dose: 13.88 mg/kg/injection, schedule: Q01DX005 (ip), vehicle: Klucel (hydroxypropylcellulose) (HPC) 164 % of control
inactive: endpoint: median survival time, dose: 0.62 mg/kg/injection, schedule: Q01DX009 (ip), vehicle: Klucel (hydroxypropylcellulose) (HPC) 118 % of control | endpoint: median survival time, dose: 1.25 mg/kg/injection, schedule: Q01DX009 (ip), vehicle: Klucel (hydroxypropylcellulose) (HPC) 123 % of control

COC1OC(OC2OC=C3C(=O)OC4CC(C)C2C34)C(O)C(O)C1O (stereo not drawn)
inactive: endpoint: median survival time, dose: 4.0 mg/kg/injection, schedule: Q01DX005 (ip), vehicle: Klucel (hydroxypropylcellulose) (HPC) 104 % of control | endpoint: median survival time, dose: 8.0 mg/kg/injection, schedule: Q01DX005 (ip), vehicle: Klucel (hydroxypropylcellulose) (HPC) 101 % of control | endpoint: median survival time, dose: 16.0 mg/kg/injection, schedule: Q01DX005 (ip), vehicle: Klucel (hydroxypropylcellulose) (HPC) 104 % of control | endpoint: median survival time, dose: 32.0 mg/kg/injection, schedule: Q01DX005 (ip), vehicle: Klucel (hydroxypropylcellulose) (HPC) 109 % of control

Cc1cn(C(C=O)OC(C=O)CO)c(=O)[nH]c1=O (stereo not drawn)
inactive: endpoint: mean survival time, dose: 10.0 mg/kg/injection, schedule: Q01DX005 (ip), vehicle: water 107 % of control | endpoint: mean survival time, dose: 10.0 mg/kg/injection, schedule: Q01DX009 (ip), vehicle: water 104 % of control | endpoint: mean survival time, dose: 12.5 mg/kg/injection, schedule: Q01DX005 (ip), vehicle: water 104 % of control | endpoint: mean survival time, dose: 20.0 mg/kg/injection, schedule: Q01DX005 (ip), vehicle: water 102 % of control | endpoint: mean survival time, dose: 20.0 mg/kg/injection, schedule: Q01DX009 (ip), vehicle: water 107 % of control | endpoint: mean survival time, dose: 25.0 mg/kg/injection, schedule: Q01DX005 (ip), vehicle: water 98 % of control | endpoint: mean survival time, dose: 40.0 mg/kg/injection, schedule: Q01DX005 (ip), vehicle: water 112 % of control | endpoint: mean survival time, dose: 40.0 mg/kg/injection, schedule: Q01DX009 (ip), vehicle: water 124 % of control | endpoint: mean survival time, dose: 50.0 mg/kg/injection, schedule: Q01DX005 (ip), vehicle: water 104 % of control | endpoint: mean survival time, dose: 80.0 mg/kg/injection, schedule: Q01DX009 (ip), vehicle: water 120 % of control | endpoint: mean survival time, dose: 100.0 mg/kg/injection, schedule: Q01DX005 (ip), vehicle: water 104 % of control | endpoint: mean survival time, dose: 160.0 mg/kg/injection, schedule: Q01DX009 (ip), vehicle: water 102 % of control | endpoint: mean survival time, dose: 200.0 mg/kg/injection, schedule: Q01DX005 (ip), vehicle: water 109 % of control

C=CC/C=C/CCCCCC
inactive: [6] 114 % of control | [1] 96 % of control | [2] 107 % of control

CCC(CCC(C)C1CCC2C3CC=C4CC(OC(=O)CCC(=O)O)CCC4(C)C3CCC12C)C(C)C (stereo not drawn)
inactive: endpoint: mean survival time, dose: 100.0 mg/kg/injection, schedule: Q04DX003 (ip), vehicle: saline with Tween-80 90 % of control | endpoint: mean survival time, dose: 200.0 mg/kg/injection, schedule: Q04DX003 (ip), vehicle: saline with Tween-80 90 % of control | endpoint: mean survival time, dose: 400.0 mg/kg/injection, schedule: Q04DX003 (ip), vehicle: saline with Tween-80 93 % of control

COc1cc2c3c(cccc3c1)C(=O)N(CCN(C)C)C2=O
inactive: endpoint: mean survival time, dose: 5.0 mg/kg/injection, schedule: Q01DX009 (ip), vehicle: saline with Tween-80 98 % of control and 100 % of control | endpoint: mean survival time, dose: 10.0 mg/kg/injection, schedule: Q01DX009 (ip), vehicle: saline with Tween-80 98 % of control and 102 % of control | [7] 97 % of control and 101 % of control | endpoint: mean survival time, dose: 40.0 mg/kg/injection, schedule: Q01DX009 (ip), vehicle: saline with Tween-80 100 % of control and 108 % of control | endpoint: mean survival time, dose: 80.0 mg/kg/injection, schedule: Q01DX009 (ip), vehicle: saline with Tween-80 103 % of control and 110 % of control | endpoint: mean survival time, dose: 160.0 mg/kg/injection, schedule: Q01DX009 (ip), vehicle: saline with Tween-80 106 % of control

O=C1OCC2C1Cc1cc(O)c(O)cc1C2c1ccc(O)c(O)c1 (stereo not drawn)
inactive: [3] 96 % of control | [4] 101 % of control | [5] 104 % of control

COc1cc(C2c3cc4c(cc3[C@@H](OC3OC5CO[C@@H](C)OC5C(O)C3O)[C@H]3COC(=O)C23)OCO4)cc(OC)c1OC (stereo partly drawn)
inactive: endpoint: median survival time, dose: 277.78 mg/kg/injection, schedule: Q01DX009 (ip), vehicle: saline 86 % of control
active: endpoint: median survival time, dose: 50.0 mg/kg/injection, schedule: Q01DX005 (ip), vehicle: saline 164 % of control | endpoint: median survival time, dose: 60.0 mg/kg/injection, schedule: Q01DX009 (ip), vehicle: saline 161 % of control | endpoint: median survival time, dose: 100.0 mg/kg/injection, schedule: Q01DX005 (ip), vehicle: saline 211 % of control | endpoint: median survival time, dose: 100.0 mg/kg/injection, schedule: Q01DX009 (ip), vehicle: saline 277 % of control | endpoint: median survival time, dose: 166.67 mg/kg/injection, schedule: Q01DX009 (ip), vehicle: saline 297 % of control | endpoint: median survival time, dose: 200.0 mg/kg/injection, schedule: Q01DX005 (ip), vehicle: saline 211 % of control

CN1C(=O)CC(c2ccc(NC(=O)N(CCCl)N=O)cc2)C1=O (stereo not drawn)
inactive: endpoint: mean survival time, dose: 50.0 mg/kg/injection, schedule: Q01DX001 (ip), vehicle: distilled water + Tween-80 95 % of control
active: endpoint: mean survival time, dose: 12.5 mg/kg/injection, schedule: Q01DX001 (ip), vehicle: distilled water + Tween-80 155 % of control and 160 % of control | endpoint: mean survival time, dose: 25.0 mg/kg/injection, schedule: Q01DX001 (ip), vehicle: distilled water + Tween-80 183 % of control and 196 % of control

S=C(N/N=C/c1ccccn1)N/N=C/c1ccccn1
inactive: [7] 102 % of control | endpoint: mean survival time, dose: 33.0 mg/kg/injection, schedule: Q01DX009 (ip), vehicle: saline with Tween-80 117 % of control | [6] 113 % of control | endpoint: mean survival time, dose: 75.0 mg/kg/injection, schedule: Q01DX009 (ip), vehicle: saline with Tween-80 119 % of control and 101 % of control
